Measured values from patent US20230293420A1, “COSMETIC OR DERMOPHARMACEUTICAL COMPOSITION, PEPTIDE AND USE IN THE REDUCTION AND ELIMINATION OF WRINKLES AND EXPRESSION LINES” (NANOCEUTICALS LTDA, priority 2022, published 2023).
Where a SMILES comes first, the peptide text is derived from it.

Tests used:
[1] = Appearance of solubilized sample in cell culture medium; format: physicochemical; settings: 1 mg/mL in cell culture medium
[2] = test system: Balb/c 3T3 clone 31 cells; test: In vitro study of neutral red cytotoxicity; format: cell-based; settings: 24 hours incubation
Description: Evaluate the in vitro cytotoxic potential of the Giovian peptide (SEQ ID No. 1) in culture of Balb/c 3T3 clone 31 cells.
In this study, Balb.c 3T3 clone 31 cells were used, obtained from the supplier Banco de Células do Rio de Janeiro, batch 001242, maintained in cultivation with DMEM (Dulbecco's Modified Eagle's Medium) with the addition of supplements, in an oven at 37° C. and 5% of CO2, and were manipulated inside the laminar flow hood. In passage 04 after thawing, the cells were distributed in 96-well plates maintained in culture under the same conditions described.
The solutions containing the control, positive control and sample groups were applied to the cell culture, 100 μL per well in quadruplicate for each group, followed by incubation in an oven at 37° C. and 5% CO2 for 24 hours. After washing, cell viability was analyzed with the neutral red indicator, 100 μL per well.
The results were evaluated using Microsoft Excel software. The control group was normalized to 100% and the percentage of cell viability in the sample and in the positive control was calculated in relation to the control. Samples are considered cytotoxic when they have 30% or more reduction in cell viability.

myoblast cells = format: cell-based

CC[C@H](C)[C@H](NC(=O)[C@H](CC(C)C)NC(=O)[C@H](CCCCN)NC(=O)CNC(=O)[C@H](CC(C)C)NC(=O)[C@H](CCCCN)NC(=O)[C@H](CC(C)C)NC(=O)[C@H](Cc1c[nH]c2ccccc12)NC(=O)[C@H](Cc1ccccc1)NC(=O)[C@@H](NC(=O)[C@H](CCCCN)NC(=O)[C@H](CCCNC(=N)N)NC(=O)[C@H](Cc1ccccc1)NC(=O)[C@@H]1CCCN1C(=O)[C@@H](NC(=O)[C@H](Cc1ccccc1)NC(=O)CNC(=O)[C@@H]1CCCN1C(=O)[C@@H]1CCCN1C(=O)[C@@H](N)CCCNC(=N)N)[C@@H](C)O)[C@@H](C)CC)C(=O)N[C@@H](CC(=O)O)C(=O)N[C@@H](C)C(=O)N[C@@H](CC(C)C)C(N)=O [Giovian] (H-RPPGFTPFRKIFWLKLGKLIDAL-NH2)
appearance of solubilized sample [1]: fully solubilized
concentrations at which the sample did not present cytotoxic effect (cytotoxic = 30% or more reduction in cell viability) [2]: lower than 0.0375 mg/ml
cell relaxation (reduction of cell contractility, collagen disc volume) (myoblast cells): increase in cell relaxation
